Consider 19 compounds from patent US20250144067A1, “PERSONALIZED STARVATION THERAPY FOR CANCER” (Faeth Therapeutics, Inc., priority 2021, published 2025).

Test [1] deals with NCI-H292 lung cancer cells. The test can be described thus: FDA drug screening, complete media vs cholesterol-free media with simvastatin (TABLE 2). The format is cell-based, human.
The subject of test [2] is NCI-H292 lung cancer cells. As to the kind of experiment: FDA drug screening, complete media vs cholesterol-free media without statin (TABLE 1). The format is cell-based, human.
[3] abbreviates: NCI-H292 cells, FDA drug library screen, cholesterol-free media with simvastatin 0.04 μM.
Where [4] appears, read: NCI-H292 cells, FDA drug library screen, complete media.
[5] abbreviates: complete media minus cholesterol-free media + simvastatin, >0 enhanced anti-cancer activity, about 0 neutral, <0 antagonist.
[6] abbreviates: NCI-H292 cells, cholesterol-free media without statin.
Setting [7] is: complete vs cholesterol-free media, greater than 0 enhanced anti-cancer activity, about 0 neutral, below 0 antagonists.
Where [8] appears, read: NCI-H292 cells, cholesterol-free media with simvastatin 0.04 μM, FDA drug library screen (TABLE 2).
Setting [9] is: NCI-H292 cells, complete media, FDA drug library screen (TABLE 2).
The mark [10] stands for this setting: complete media minus cholesterol-free media + simvastatin (0.04 μM), >0 enhanced anti-cancer activity, about 0 neutral, <0 antagonist.
Where [11] appears, read: Complete minus Cholesterol-free, >0 enhanced anti-cancer activity, about 0 neutral, <0 antagonist.
[12] abbreviates: complete media vs cholesterol-free media + simvastatin (0.04 μM), >0 enhanced anti-cancer activity, about 0 neutral, <0 antagonist.
Where [13] appears, read: Complete minus Cholesterol-free, greater than 0 enhanced anti-cancer activity, about 0 neutral, below 0 antagonist.
The mark [14] stands for this setting: NCI-H292 cells, FDA drug library screen, cholesterol-free media without statin.
[15] abbreviates: NCI-H292 cells, drug in cholesterol-free media with simvastatin 0.04 μM.
[16] abbreviates: NCI-H292 cells, drug in complete media.
[17] abbreviates: Complete minus Cholesterol-free, greater than 0 enhanced anti-cancer activity, about 0 neutral, below 0 antagonists.
Where [18] appears, read: NCI-H292 cells in cholesterol-free media without statin.
Setting [19] is: NCI-H292 cells in complete media.
[20] abbreviates: NCI-H292 cells, cholesterol-free media without statin, FDA drug library screen.
Where [21] appears, read: NCI-H292 cells, complete media, FDA drug library screen.
[22] abbreviates: complete vs cholesterol-free media, >0 enhanced anti-cancer activity, about 0 neutral, <0 antagonist.

Structures can show the parent of a compound that is named as a salt. Where two headings read alike, the source gives them in different places.

`Cc1cc(-c2ccccc2)nnc1NCCN1CCOCC1` [Minaprine (dihydrochloride)]: the “Cholesterol-free media + simvastatin (0.04 μM)” value in test [1] (setting [3]) is reported as 0.8439. For the same compound, in test [1] (setting [4]), the “Complete Media” value is 1.278. The Difference in test [1] (setting [5]) is 0.43; in test [2] (setting [7]), −0.44. In test [2] (setting [6]), this compound came in with a Cholesterol-free of 1.341. For the same compound, the Complete in test [2] (NCI-H292 cells, complete media) is listed as 0.9021.

Turning to `CC(C)C(=O)Nc1ccc([N+](=O)[O-])c(C(F)(F)F)c1` [Flutamide], the “Cholesterol-free media + simvastatin (0.04 μM)” value in test [1] (setting [8]) is on record as 0.8786. In addition, the “Complete Media” value in test [1] (setting [9]) turned out to be 0.855. In addition, the Difference is reported as −0.02 in test [1] (setting [10]) and −0.27 in test [2] (setting [11]). This compound displayed a Cholesterol-free in test [2] (setting [6]) of 1.049. Further, the Complete in test [2] (NCI-H292 cells, complete media) is 0.7826.

In the case of `CC[C@H](Nc1ncnc2[nH]cnc12)c1nc2cccc(F)c2c(=O)n1-c1ccccc1` [Idelalisib], the “Cholesterol-free media + simvastatin (0.04 μM)” value in test [1] (NCI-H292 cells, FDA library drug in cholesterol-free media with simvastatin 0.04 μM) is 1.507. In addition, in test [1] (NCI-H292 cells, FDA library drug in complete media), the “Complete Media” value is 1.219. Further, the Difference in test [1] (setting [12]) is listed as −0.29; in test [2] (setting [13]), −0.13. Moreover, in test [2] (setting [14]), the Cholesterol-free was found to be 1.096. Moreover, the Complete in test [2] (setting [4]) is 0.9672.

`CC[C@H](C)C(=O)N1CCC(NC(=O)Nc2ccc(OC(F)(F)F)c(F)c2)CC1` [EC5026]: the “Cholesterol-free media + simvastatin (0.04 μM)” value in test [1] (setting [3]) was 1.241. The “Complete Media” value in test [1] (setting [4]) is on record as 1.143. The Difference in test [1] (complete media vs cholesterol-free media + simvastatin (0.04 μM), […]) was −0.10; in test [2] (complete vs cholesterol-free media, […]), −0.41. Moreover, the Cholesterol-free in test [2] (setting [6]) is on record as 1.148. This compound also came in with a Complete in test [2] (NCI-H292 cells, complete media) of 0.7425.

With `Oc1cccc(-c2c3nc(c(-c4cccc(O)c4)c4ccc([nH]4)c(-c4cccc(O)c4)c4nc(c(-c5cccc(O)c5)c5ccc2[nH]5)CC4)C=C3)c1` [Temoporfin], in test [1] (setting [3]), the “Cholesterol-free media + simvastatin (0.04 μM)” value was found to be 0.6286. Besides, the “Complete Media” value in test [1] (setting [4]) turned out to be 0.9208. Besides, the Difference in test [1] (setting [5]) is 0.29; in test [2] (setting [13]), −0.10. Besides, in test [2] (setting [14]), the Cholesterol-free is reported as 0.848. In test [2] (setting [4]), this compound showed a Complete of 0.7514.

As for `CNCCc1ccccn1` [Betahistine (dihydrochloride)], in test [1] (setting [15]), the “Cholesterol-free media + simvastatin (0.04 μM)” value is on record as 1.02. Moreover, the “Complete Media” value in test [1] (setting [16]) is recorded as 0.8007. Moreover, the Difference was −0.22 in test [1] (setting [12]) and −0.39 in test [2] (setting [7]). Also, the Cholesterol-free in test [2] (setting [6]) is 1.528. The compound further came in with a Complete in test [2] (NCI-H292 cells, complete media) of 1.139.

As for `CC(C)CN(C[C@@H](O)[C@H](Cc1ccccc1)NC(=O)O[C@H]1CO[C@H]2OCC[C@H]21)S(=O)(=O)c1ccc(N)cc1` [Darunavir], in test [1], the “Cholesterol-free media + simvastatin (0.04 μM)” value is 0.9174, the “Complete Media” value stood at 0.7724 and the Difference is −0.14. In test [2], this compound registered a Cholesterol-free of 1.103, a Complete of 0.8067 and a Difference of −0.30.

As to `Clc1ccccc1C(c1ccccc1)(c1ccccc1)n1ccnc1` [Clotrimazole], the “Cholesterol-free media + simvastatin (0.04 μM)” value in test [1] (setting [3]) was 0.4166. Also, the “Complete Media” value in test [1] (setting [4]) is on record as 0.8582. Further, the Difference in test [1] (setting [5]) is listed as 0.44; in test [2] (setting [17]), −0.77. This compound also returned a Cholesterol-free in test [2] (setting [18]) of 1.485. In addition, the Complete in test [2] (setting [19]) was 0.7188.

`Cc1ncc(COP(=O)(O)O)c(C=O)c1O` [Pyridoxal phosphate]: in test [1] (setting [15]), the “Cholesterol-free media + simvastatin (0.04 μM)” value was determined as 1.11. Besides, the “Complete Media” value in test [1] (setting [16]) is given as 0.9056. Also, the Difference is recorded as −0.20 in test [1] (setting [12]) and 0.47 in test [2] (setting [22]). Besides, in test [2] (setting [20]), the Cholesterol-free came to 1.045. Further, in test [2] (setting [21]), the Complete was 1.512.

Take `Nc1c(CC(=O)O)cccc1C(=O)c1ccccc1` [Amfenac (Sodium Hydrate)]: in test [1] (setting [8]), the “Cholesterol-free media + simvastatin (0.04 μM)” value amounted to 0.8959. For the same compound, the “Complete Media” value in test [1] (setting [9]) was 0.8462. The Difference in test [1] (setting [10]) is −0.05; in test [2] (setting [22]) it was 0.64. Further, in test [2] (setting [20]), the Cholesterol-free stood at 1.155. The compound also displayed a Complete in test [2] (setting [21]) of 1.799.

For `COc1cc(C(C)=O)ccc1OCCCN1CCC(c2noc3cc(F)ccc23)CC1` [Iloperidone], the “Cholesterol-free media + simvastatin (0.04 μM)” value in test [1] (setting [3]) was 0.9523. Also, the “Complete Media” value in test [1] (setting [4]) is reported as 1.134. Further, the Difference in test [1] (setting [5]) is 0.18; in test [2] (setting [11]) it was −0.06. Further, the Complete in test [2] (setting [21]) turned out to be 0.8863.

With Amlodipine (besylate), in test [1], the “Cholesterol-free media + simvastatin (0.04 μM)” value was 1.186 and the Difference is −0.19. In addition, in test [2], the Cholesterol-free worked out at 1.359 and the Difference was −0.33.

As to `CC1COc2c(N3CCN(C)CC3)c(F)cc3c(=O)c(C(=O)O)cn1c23` (centres unmarked) [Ofloxacin], in test [1] (setting [15]), the “Cholesterol-free media + simvastatin (0.04 μM)” value came to 1.154. In test [1] (setting [16]), the “Complete Media” value was 0.9389. The Difference in test [1] (setting [12]) is −0.22; in test [2] (setting [7]), −0.36. The Cholesterol-free in test [2] (setting [6]) is given as 1.221. In test [2] (NCI-H292 cells, complete media), this compound registered a Complete of 0.8562.

`CCOc1cc2ncc(C#N)c(Nc3ccc(OCc4ccccn4)c(Cl)c3)c2cc1NC(=O)/C=C/CN(C)C` [Neratinib]: in test [1], the “Cholesterol-free media + simvastatin (0.04 μM)” value worked out at 0.3387, the “Complete Media” value stood at 0.3007 and the Difference is reported as −0.04. Besides, in test [2], the Cholesterol-free amounted to 0.06707, the Complete stood at 0.1268 and the Difference came out at 0.06.

Regarding `OC(c1cc(C(F)(F)F)nc2c(C(F)(F)F)cccc12)C1CCCCN1` (centres unmarked) [Mefloquine (hydrochloride)], the “Cholesterol-free media + simvastatin (0.04 μM)” value in test [1] (setting [3]) amounted to 1.137. Moreover, in test [1] (setting [4]), the “Complete Media” value was 1.057. In addition, the values for the Difference in test [1] (setting [12]) and in test [2] (setting [17]) were −0.08 and −0.49, respectively. The compound also yielded a Cholesterol-free in test [2] (setting [18]) of 1.439. In addition, the Complete in test [2] (setting [19]) was 0.9523.

As for `CCOc1nc2cccc(C(=O)O)c2n1Cc1ccc(-c2ccccc2-c2nc(=O)o[nH]2)cc1` [Azilsartan], the “Cholesterol-free media + simvastatin (0.04 μM)” value in test [1] (setting [3]) worked out at 1.196. Further, the “Complete Media” value in test [1] (setting [4]) came to 1.042. The Difference in test [1] (setting [12]) is −0.15; in test [2] (setting [7]) it was −0.40. This compound had a Cholesterol-free in test [2] (setting [6]) of 1.417. In test [2] (NCI-H292 cells, complete media), this compound showed a Complete of 1.021.

Regarding `Nc1ccn([C@H]2CC[C@@H](CO)O2)c(=O)n1` [Zalcitabine], the “Cholesterol-free media + simvastatin (0.04 μM)” value in test [1] (NCI-H292 cells, cholesterol-free media with simvastatin 0.04 μM, cell growth value in FDA drug screen) was 1.825. For the same compound, the “Complete Media” value in test [1] (NCI-H292 cells, complete media, cell growth value in FDA drug screen) came out at 1.89. Besides, the figures for the Difference in test [1] (setting [5]) and in test [2] (setting [11]) were 0.06 and −0.22, respectively. In test [2] (setting [6]), this compound yielded a Cholesterol-free of 1.156. Moreover, the Complete in test [2] (NCI-H292 cells, complete media) is reported as 0.9405.

Consider `COc1ccc(-c2cc(=O)c3c(O)cc(O[C@@H]4O[C@H](CO[C@@H]5O[C@@H](C)[C@H](O)[C@@H](O)[C@H]5O)[C@@H](O)[C@H](O)[C@H]4O)cc3o2)cc1O` [Diosmin], for which the “Cholesterol-free media + simvastatin (0.04 μM)” value in test [1] (setting [3]) amounted to 1.252. Further, the Difference is given as −0.10 in test [1] (setting [12]) and 0.75 in test [2] (setting [22]). This compound gave a Cholesterol-free in test [2] (setting [20]) of 0.7178. Also, in test [2] (setting [21]), the Complete is on record as 1.465.

Take `C[C@]1(COc2ccc(N3CCC(Oc4ccc(OC(F)(F)F)cc4)CC3)cc2)Cn2cc([N+](=O)[O-])nc2O1` [Delamanid]: in test [1] (setting [8]), the “Cholesterol-free media + simvastatin (0.04 μM)” value is listed as 1.352. For the same compound, in test [1] (setting [9]), the “Complete Media” value worked out at 1.345. The Difference is on record as −0.01 in test [1] (setting [10]) and −0.22 in test [2] (setting [11]). This compound also returned a Cholesterol-free in test [2] (setting [6]) of 1.106. For the same compound, the Complete in test [2] (NCI-H292 cells, complete media) was determined as 0.8827.
